# From patent US20240166643A1, “IMIDAZO[1,2-A]PYRIDINE COMPOUNDS AND THEIR USE IN THERAPY” (Imperial College Innovations Limited, priority 2020, published 2024)
# Legend:
# [1] = tested on: Plasmodium falciparum 3D7; assay: SYBR Green assay, Plasmodium falciparum strain 3D7; assay type: cell-based; conditions: P. falciparum strain 3D7, 96 h incubation, read-out: Pf EC50 strain 3D7
# [2] = biological target: Human NMT1 (HsNMT1) (Homo sapiens, UniProt P30419); assay: biochemical
# Human NMT1 (HsNMT1), sequence (P30419 whole entry, looked up): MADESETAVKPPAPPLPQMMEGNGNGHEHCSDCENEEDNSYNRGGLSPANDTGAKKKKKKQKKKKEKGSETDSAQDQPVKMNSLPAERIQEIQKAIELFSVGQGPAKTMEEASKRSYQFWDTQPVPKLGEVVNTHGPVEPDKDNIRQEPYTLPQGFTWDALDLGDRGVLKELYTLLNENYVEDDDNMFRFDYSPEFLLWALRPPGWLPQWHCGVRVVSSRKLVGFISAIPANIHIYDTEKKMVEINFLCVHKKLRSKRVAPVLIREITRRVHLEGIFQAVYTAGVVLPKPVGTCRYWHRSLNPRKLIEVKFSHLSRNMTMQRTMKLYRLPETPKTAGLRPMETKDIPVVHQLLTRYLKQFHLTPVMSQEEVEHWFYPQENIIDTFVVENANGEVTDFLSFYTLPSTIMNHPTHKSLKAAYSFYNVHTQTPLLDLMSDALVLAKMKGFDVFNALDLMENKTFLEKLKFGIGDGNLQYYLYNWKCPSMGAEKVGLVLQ
EC50 [1] [nM],IC50 [2] [nM],Compound
57,–,CC1CN(c2ncc(Cl)c(N3CC(C(=O)NC(C)(C)c4cnc5ccccn45)C3)n2)C[C@@H](C)N1 (stereo partly shown) [Example 46]
2.2,–,CC1NCCN(c2ncc(Cl)c(N3CC(C(=O)NC(C)(C)c4cnc5ccccn45)C3)n2)C1C (stereo not shown) [Example 79]
5.3,–,"C[C@@H]1CN(c2cc(N3CC(C(=O)NC(C)(C)c4cnc5ccccn45)C3)c(Cl)cn2)CCN1C [Example 103, 1-{5-chloro-2-[(3R)-3,4-dimethylpiperazin-1-yl]pyridin-4-yl}-N-(2-{imidazo[1,2-a]pyridin-3-yl}propan-2-yl)azetidine-3-carboxamide]"
35,–,"C[C@@H]1CN(c2cc(N3CC(C(=O)NC(C)(C)c4cnc5ccccn45)C3)c(F)cn2)CCN1C [Example 104, 1-{2-[(3R)-3,4-dimethylpiperazin-1-yl]-5-fluoropyridin-4-yl}-N-(2-{imidazo[1,2-a]pyridin-3-yl}propan-2-yl)azetidine-3-carboxamide]"
18,–,"CN1CCN(c2cc(N3CC(C(=O)NC(C)(C)c4cnc5ccccn45)C3)c(Cl)cn2)CC1 [Example 105, 1-[5-chloro-2-(4-methylpiperazin-1-yl)pyridin-4-yl]-N-(2-{imidazo[1,2-a]pyridin-3-yl}propan-2-yl)azetidine-3-carboxamide]"
> 1000,–,"C[C@H]1CN(C)CCN1c1ncc(Cl)c(N2CC(C(=O)N(C)Cc3cnc4ccccn34)C2)n1 [Example 106, 1-{5-chloro-2-[(2S)-2,4-dimethylpiperazin-1-yl]pyrimidin-4-yl}-N-{imidazo[1,2-a]pyridin-3-ylmethyl}-N-methylazetidine-3-carboxamide]"
–,8,"CC(C)(NC(=O)C1CN(c2nc(N3CCCNCC3)nc3ccsc23)C1)c1cnc2ccccn12 [Example 123, 1-(2-(1,4-diazepan-1-yl)thieno[3,2-d]pyrimidin-4-yl)-N-(2-(Imidazo[1,2-a]pyridin-3-yl)propan-2-yl)azetidine-3-carboxamide]"
–,234,"CN(C(=O)C1CN(c2nc(N3CCC(N)CC3)ncc2Cl)C1)C(C)(C)c1cnc2ccccn12 [Example 128, 1-(2-(4-aminopiperidin-1-yl)-5-chloropyrimidin-4-yl)-N-(2-(Imidazo[1,2-a]pyridin-3-yl)propan-2-yl)-N-methylazetidine-3-carboxamide]"
–,179,"CN(C(=O)C1CN(c2nc(N3CCCC(N)CC3)ncc2Cl)C1)C(C)(C)c1cnc2ccccn12 (stereo not shown) [Example 131, 1-(2-(4-aminoazepan-1-yl)-5-chloropyrimidin-4-yl)-N-(2-(imidazo[1,2-a]pyridin-3-yl)propan-2-yl)-N-methylazetidine-3-carboxamide]"
–,190,"CN(C(=O)C1CN(c2nc(N3CC4CC3CN4)ncc2Cl)C1)C(C)(C)c1cnc2ccccn12 (stereo not shown) [Example 132, 1-(2-(2,5-diazabicyclo[2.2.1]heptan-2-yl)-5-chloropyrimidin-4-yl)-N-(2-(imidazo[1,2-a]pyridin-3-yl)propan-2-yl)-N-methylazetidine-3-carboxamide]"
–,146,"C[C@H]1CN(c2ncc(Cl)c(N3CC(C(=O)N(C)C(C)(C)c4cnc5ccccn45)C3)n2)CCN1C [Example 140, (S)-1-(5-chloro-2-(3,4-dimethylpiperazin-1-yl)pyrimidin-4-yl)-N-(2-(imidazo[1,2-a]pyridin-3-yl)propan-2-yl)-N-methylazetidine-3-carboxamide]"

Compound,EC50 [1] [nM],IC50 [2] [nM]
"COc1cnc(N2C[C@@H](C)N(C)[C@H](C)C2)nc1N1CC(C(=O)NC(C)(C)c2cnc3ccccn23)C1 [Example 91, N-(2-{imidazo[1,2-a]pyridin-3-yl}propan-2-yl)-1-{5-methoxy-2-[(3R,5R)-3,4,5-trimethylpiperazin-1-yl]pyrimidin-4-yl}azetidine-3-carboxamide]",230,–
"COc1cnc(N2C[C@H](C)N(C)[C@@H](C)C2)nc1N1CC(C(=O)NC(C)(C)c2cnc3ccccn23)C1 [Example 94, N-(2-{imidazo[1,2-a]pyridin-3-yl}propan-2-yl)-1-{5-methoxy-2-[(3S,5S)-3,4,5-trimethylpiperazin-1-yl]pyrimidin-4-yl}azetidine-3-carboxamide]",440,–
